Source: article PMC10999543, “Identification of kinase modulators as host-directed therapeutics against intracellular methicillin-resistant Staphylococcus aureus” (Frontiers in Cellular and Infection Microbiology, 2024)
Where two headings read alike, the source gives them in different places.

Tests used:
intracellular MRSA = type: cell-based, Staphylococcus aureus; settings: for %GFP+ rep 1 / z-scoreMRSA+ rep 1: replicate 1; for %GFP+ rep 2 / z-scoreMRSA+ rep 2: replicate 2; for %GFP+ rep 3 / z-scoreMRSA+ rep 3: replicate 3; for z-scoreMRSA+ mean: mean of 3 replicates
Summary of the method: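 HeLa cells infected with GFP-MRSA (MOI ~6.8), gentamicin-cleared, then incubated overnight at 37°C with inhibitors plus 5 µg/ml gentamicin; DMSO as negative control, triplicates. Flow cytometry gave % GFP-positive cells and cell count (viability surrogate); hits by plate z-score (MRSA ≤ -2, HeLa count ≥ -3).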

HeLa cells = test: Compound screen by flow cytometry: HeLa cell count as surrogate readout of cell viability (z-scoreHeLa); type: cell-based, human; settings: for cell count rep 1 / z-scoreHeLa rep 1: replicate 1; for cell count rep 2 / z-scoreHeLa rep 2: replicate 2; for cell count rep 3 / z-scoreHeLa rep 3: replicate 3; for z-scoreHeLa mean: mean of 3 replicates
Summary of the method: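 HeLa cells were infected with GFP-MRSA (mean MOI 6.8 ± 4.6) for 1 h, and extracellular bacteria were killed with 30 µg/ml gentamicin. Cells were then incubated overnight with kinase inhibitors in 5 µg/ml gentamicin, in triplicate against DMSO controls. Flow-cytometric cell count served as a viability surrogate, expressed as a plate z-score.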

[1] = PKIS compound screen raw data, MRSA-infected HeLa cells
[2] = PKIS compound screen, MRSA-infected HeLa cells
[3] = PKIS compound screen, Yes/No call
[4] = PKIS compound screen, Yes/No call (effect without cell death)
[5] = PKIS compound screen, Yes/No call on z-scoreMRSA+
[6] = PKIS compounds raw data, MRSA-infected HeLa cells
[7] = PKIS compound screen raw data, HeLa cell count
[8] = PKIS compound screen, HeLa cell count
[9] = PKIS compound screen, Yes/No call on z-scoreHeLa
[10] = PKIS compounds raw data, HeLa cell count
[11] = Yes/No: effect without cell death
[12] = compound screen, MRSA-infected HeLa cells
[13] = compound screen, HeLa cell count

| SMILES | %GFP+ rep 1 (intracellular MRSA; [1]) [%] | %GFP+ rep 2 (intracellular MRSA; [1]) [%] | %GFP+ rep 3 (intracellular MRSA; [1]) [%] | z-scoreMRSA+ mean (intracellular MRSA; [2]) | z-scoreMRSA+ rep 1 (intracellular MRSA; [2]) | z-scoreMRSA+ rep 2 (intracellular MRSA; [2]) | z-scoreMRSA+ rep 3 (intracellular MRSA; [2]) | hit (intracellular MRSA; [4]) | effect (intracellular MRSA; [5]) | %GFP+ rep 1 (intracellular MRSA; [6]) [%] | %GFP+ rep 2 (intracellular MRSA; [6]) [%] | %GFP+ rep 3 (intracellular MRSA; [6]) [%] | cell count rep 1 (HeLa cells; [7]) | cell count rep 2 (HeLa cells; [7]) | cell count rep 3 (HeLa cells; [7]) | z-scoreHeLa mean (HeLa cells; [8]) | z-scoreHeLa rep 1 (HeLa cells; [8]) | z-scoreHeLa rep 2 (HeLa cells; [8]) | z-scoreHeLa rep 3 (HeLa cells; [8]) | cell death (HeLa cells; [9]) | further results |
| --- | --- | --- | --- | --- | --- | --- | --- | --- | --- | --- | --- | --- | --- | --- | --- | --- | --- | --- | --- | --- | --- |
| Cc1cccc(Cn2ccn3c(=O)cc(N4CCOCC4)nc23)c1 [GSK2297542A] | 14.5 | 15.7 | 16.8 | -1.12 | -1.14 | -1.01 | -1.21 | No | No | 23.8 | 25.2 | 24.5 | 36714 | 30989 | 25952 | 1.15 | 1.10 | 0.98 | 1.37 | No | effect (intracellular MRSA; [3]): No; z-scoreMRSA+ mean (intracellular MRSA; PKIS compound screen): -0.44; z-scoreMRSA+ rep 1 (intracellular MRSA; PKIS compound screen): -0.63; z-scoreMRSA+ rep 2 (intracellular MRSA; PKIS compound screen): -0.16; z-scoreMRSA+ rep 3 (intracellular MRSA; PKIS compound screen): -0.51; cell death (HeLa cells; [3]): No; z-scoreHeLa mean (HeLa cells; PKIS compound screen): 0.56; z-scoreHeLa rep 1 (HeLa cells; PKIS compound screen): 0.45; z-scoreHeLa rep 2 (HeLa cells; PKIS compound screen): 0.33; z-scoreHeLa rep 3 (HeLa cells; PKIS compound screen): 0.91; cell count rep 1 (HeLa cells; [10]): 6792; cell count rep 2 (HeLa cells; [10]): 6500; cell count rep 3 (HeLa cells; [10]): 7025 |
| Cn1cc(-c2cnc(N)c3c(-c4ccc5c(c4)CCN5C(=O)Cc4ccccc4)csc23)cn1 [GSK2593074A] | – | – | – | – | – | – | – | – | – | 24.8 | 21.4 | 19.2 | – | – | – | – | – | – | – | – | effect (intracellular MRSA; Yes/No call from z-scoreMRSA+): No; hit (intracellular MRSA; [11]): No; z-scoreMRSA+ mean (intracellular MRSA; [12]): 2.45; z-scoreMRSA+ rep 1 (intracellular MRSA; [12]): 3.72; z-scoreMRSA+ rep 2 (intracellular MRSA; [12]): 2.64; z-scoreMRSA+ rep 3 (intracellular MRSA; [12]): 0.98; cell count rep 1 (HeLa cells; [10]): 857; cell count rep 2 (HeLa cells; [10]): 369; cell count rep 3 (HeLa cells; [10]): 1620; cell death (HeLa cells; Yes/No call from z-scoreHeLa): Yes; z-scoreHeLa mean (HeLa cells; [13]): -3.02; z-scoreHeLa rep 1 (HeLa cells; [13]): -3.54; z-scoreHeLa rep 2 (HeLa cells; [13]): -2.95; z-scoreHeLa rep 3 (HeLa cells; [13]): -2.56 |
| Cc1ccccc1CC(=O)N1CCc2cc(-c3cn(C)c4ncnc(N)c34)ccc21 [GSK2603346A] | 20.6 | 20.8 | 20.5 | 0.59 | 0.87 | 0.68 | 0.22 | No | No | – | – | – | 19984 | 27840 | 38532 | -0.54 | -0.02 | -1.30 | -0.32 | No | – |
| COc1cc2nccc(Nc3cccc(Oc4ccccc4)c3)c2cc1OC [GW284543A] | 19.7 | 21.7 | 21.6 | 0.70 | 0.58 | 0.96 | 0.55 | No | No | – | – | – | 34308 | 33464 | 39414 | 0.58 | 2.15 | -0.25 | -0.18 | No | – |
| CCCNC(=O)Nc1ccc(N(C)c2ccnc(NC3CC3)n2)cc1 [GW818933X] | 16.2 | 17.1 | 17.2 | -0.81 | -0.69 | -0.63 | -1.10 | No | No | 27.9 | 27.2 | 26.9 | 29169 | 27486 | 16622 | -0.08 | -0.17 | 0.38 | -0.45 | No | effect (intracellular MRSA; [3]): No; z-scoreMRSA+ mean (intracellular MRSA; PKIS compound screen): 0.11; z-scoreMRSA+ rep 1 (intracellular MRSA; PKIS compound screen): 0.16; z-scoreMRSA+ rep 2 (intracellular MRSA; PKIS compound screen): 0.22; z-scoreMRSA+ rep 3 (intracellular MRSA; PKIS compound screen): -0.07; cell death (HeLa cells; [3]): No; z-scoreHeLa mean (HeLa cells; PKIS compound screen): 0.64; z-scoreHeLa rep 1 (HeLa cells; PKIS compound screen): 0.56; z-scoreHeLa rep 2 (HeLa cells; PKIS compound screen): 0.63; z-scoreHeLa rep 3 (HeLa cells; PKIS compound screen): 0.73; cell count rep 1 (HeLa cells; [10]): 6971; cell count rep 2 (HeLa cells; [10]): 6954; cell count rep 3 (HeLa cells; [10]): 6744 |
| CN1CCN(Cc2ccc(NC(=O)Nc3ccc(N(C)c4ccnc(Nc5ccc(CS(C)(=O)=O)cc5)n4)cc3)cc2)CC1 [GW827654A] | 24.8 | 24.9 | 25.0 | – | – | – | – | – | – | – | – | – | 30631 | 31592 | 23281 | – | – | – | – | – | effect (intracellular MRSA; Yes/No call from z-scoreMRSA+): No; hit (intracellular MRSA; [11]): No; z-scoreMRSA+ mean (intracellular MRSA; [12]): 1.38; z-scoreMRSA+ rep 1 (intracellular MRSA; [12]): 1.61; z-scoreMRSA+ rep 2 (intracellular MRSA; [12]): 1.50; z-scoreMRSA+ rep 3 (intracellular MRSA; [12]): 1.03; cell death (HeLa cells; Yes/No call from z-scoreHeLa): No; z-scoreHeLa mean (HeLa cells; [13]): 0.67; z-scoreHeLa rep 1 (HeLa cells; [13]): 0.07; z-scoreHeLa rep 2 (HeLa cells; [13]): 1.08; z-scoreHeLa rep 3 (HeLa cells; [13]): 0.85 |
| CCn1c(-c2nonc2N)nc2c(C#CC(C)(C)O)nc(OC[C@@H](N)c3ccccc3)cc21 [GSK938890A] | 12.8 | 14.8 | 15.1 | -1.38 | -1.60 | -1.12 | -1.43 | No | No | – | – | – | 14299 | 35410 | 42196 | -0.17 | -0.88 | 0.12 | 0.27 | No | – |
